The results in this text go back to US10870638B2, “Pyridazinone compound or its salt, and herbicide containing it” (ISHIHARA SANGYO KAISHA, LTD., priority 2016, dated 2020).

What all share (type): in vivo
Assay [1] concerns barnyardgrass (Echinochloa crus-qalli L.). The experiment in a line: Test Example 1: foliar treatment, growth inhibition rate on 14th day. The following applies: active ingredient amount 31 g/ha, 14th day after application, visual, 0 = non-treated, 100 = complete kill. In outline:
(§1)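 Using a small sprayer, formulated compound in water (0.1 vol % surfactant, 1,000 L/ha) was applied to seedlings grown from seed in upland soil. Fourteen days on, growth state was observed and expressed as percent inhibition from 0 to 100.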

Assay [2] concerns corn (Zea mays L.). The description is as above. The following applies: active ingredient amount 31 g/ha, 14th day after application, visual, 0 = non-treated, 100 = complete kill. In outline:
as §1

In assay [3] the test system is crabgrass (Digitaria sanquinalis L.). The assay is described as above. The following applies: active ingredient amount 31 g/ha, 14th day after application, visual, 0 = non-treated, 100 = complete kill. In outline: as §1
The subject of assay [4] is green foxtail (Setaria viridis L.). The assay is described as above. The following applies: active ingredient amount 31 g/ha, 14th day after application, visual, 0 = non-treated, 100 = complete kill. In outline: (§2)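 Growth inhibition rates (%) come from visual observation on the 14th day following a single foliar application. Soybean was sprayed at the primary leaf stage, rice at 0.2–2.7 leaves, wild oat at 0.4–1.2, green foxtail at 0.5–3.2.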

Assay [5] concerns italian ryegrass (Lolium multiflorum Lam.). The description is as above. The following applies: active ingredient amount 31 g/ha, 14th day after application, visual, 0 = non-treated, 100 = complete kill. In outline: as §1
Assay [6] relates to redroot pigweed (Amaranthus retroflexus L.). The description is as above. The following applies: active ingredient amount 31 g/ha, 14th day after application, visual, 0 = non-treated, 100 = complete kill. In outline:
as §1

Assay [7] concerns rice (Oryza sativa L.). Described as above. The following applies: active ingredient amount 31 g/ha, 14th day after application, visual, 0 = non-treated, 100 = complete kill. In outline:
as §2

Assay [8] deals with soybean (Glycine max Merr.). The description is as above. The following applies: active ingredient amount 31 g/ha, 14th day after application, visual, 0 = non-treated, 100 = complete kill. In outline:
as §2

The test system of assay [9] is wheat (Triticum aestivum L.). The description is as above. The following applies: active ingredient amount 31 g/ha, 14th day after application, visual, 0 = non-treated, 100 = complete kill. In outline:
as §1

Assay [10] relates to wild oat (Avena fatua L.). The description is as above. The following applies: active ingredient amount 31 g/ha, 14th day after application, visual, 0 = non-treated, 100 = complete kill. In outline: as §2
Assay [11] relates to barnyardgrass (Echinochloa crus-qalli L.). The assay is described as follows: Test Example 2: soil application on the day after sowing, growth inhibition rate on 14th day. The following applies: active ingredient amount 31 g/ha, 14th day after application. In outline: (§3)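 Pre-emergence soil spray, day after sowing; WP or EC formulations diluted to 1,000 L/ha water at set a.i. rates. Visual growth inhibition %, 0 = untreated, 100 = complete kill, read at day 14.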

The test system of assay [12] is corn (Zea mays L.). The description is as above. The following applies: active ingredient amount 31 g/ha, 14th day after application. In outline:
as §3

Assay [13] has as its system crabgrass (Digitaris sanquinalis L.). The assay is described as above. The following applies: active ingredient amount 31 g/ha, 14th day after application. In outline: as §3
The subject of assay [14] is green foxtail (Setaria viridis L.). The description is as above. The following applies: active ingredient amount 31 g/ha, 14th day after application. In outline: as §3
Assay [15] deals with prickly sida (Sida spinosa L.). The assay is described as above. The following applies: active ingredient amount 31 g/ha, 14th day after application. In outline:
as §3

In assay [16] the test system is redroot pigweed (Amaranthus retroflexus L.). The assay is described as above. The following applies: active ingredient amount 31 g/ha, 14th day after application. In outline: as §3
The subject of assay [17] is rice (Oryza sativa L.). The assay is described as above. The following applies: active ingredient amount 31 g/ha, 14th day after application. In outline:
as §3

Assay [18] deals with soybean (Glycine max Merr.). Described as above. The following applies: active ingredient amount 31 g/ha, 14th day after application. In outline: as §3
The subject of assay [19] is velvetleaf (Abutilon theophrasti MEDIC.). The description is as above. The following applies: active ingredient amount 31 g/ha, 14th day after application. In outline:
as §3

In assay [20] the test system is wheat (Triticum aestivum L.). The assay is described as above. The following applies: active ingredient amount 31 g/ha, 14th day after application. In outline: as §3

The structures appear in SMILES notation.

For the molecule `Cc1ccc(Oc2cnc3cc(Cl)ccc3n2)cc1-c1c(OC(=O)OCCCl)c(C)nn(C)c1=O` [Compound 3-59], the “Growth inhibition rate (%) Barnyardgrass” value in [1] came to 99%; in [11], 85%. Further, the “Growth inhibition rate (%) Corn” value in assay [2] and in [12] was 0% throughout. Further, the “Growth inhibition rate (%) Crabgrass” value was 98% in assay [3] and 0% in assay [13]. Further, the “Growth inhibition rate (%) Green foxtail” value worked out at 100% in assay [4] and 80% in assay [14]. Besides, the “Growth inhibition rate (%) Italian ryegrass” value in assay [5] is recorded as 93%. Further, the “Growth inhibition rate (%) Redroot pigweed” value in [6] and in [16] was 0% in each case. Moreover, the “Growth inhibition rate (%) Rice” value in assay [7] and in assay [17] was 0% throughout. Further, the figures for the “Growth inhibition rate (%) Soybean” value in assay [8] and in [18] were 20% and 0%, respectively. Besides, the “Growth inhibition rate (%) Wheat” value was determined as 65% in [9] and 0% in assay [20]. For the same molecule, the “Growth inhibition rate (%) Wild oat” value in [10] stood at 93%. For the same molecule, in [15], the “Growth inhibition rate (%) Prickly sida” value came to 0%. Besides, the “Growth inhibition rate (%) Velvetleaf” value in assay [19] is listed as 0%.
In the case of `C#CCOC(=O)Oc1c(C)nn(C)c(=O)c1-c1cc(Oc2cnc3cc(Cl)ccc3n2)ccc1C` [Compound 3-64], the “Growth inhibition rate (%) Barnyardgrass” value in assay [1] and in assay [11] was 98% each time. The figures for the “Growth inhibition rate (%) Corn” value in assay [2] and in assay [12] were 50% and 0%, respectively. Also, the figures for the “Growth inhibition rate (%) Crabgrass” value in assay [3] and in [13] were 90% and 50%, respectively. Also, the “Growth inhibition rate (%) Green foxtail” value in [4] is 100%; in assay [14], 93%. Moreover, in assay [5], the “Growth inhibition rate (%) Italian ryegrass” value is given as 85%. In addition, the “Growth inhibition rate (%) Redroot pigweed” value in assay [6] and in [16] was 0% each time. Moreover, the “Growth inhibition rate (%) Rice” value in assay [7] and in [17] was 0% in each case. The “Growth inhibition rate (%) Soybean” value in assay [8] and in assay [18] was 0% in each case. Besides, the “Growth inhibition rate (%) Wheat” value worked out at 60% in [9] and 0% in assay [20]. In addition, the “Growth inhibition rate (%) Wild oat” value in [10] is reported as 83%. In addition, the “Growth inhibition rate (%) Prickly sida” value in assay [15] came to 0%. Besides, the “Growth inhibition rate (%) Velvetleaf” value in assay [19] is recorded as 0%.
Regarding `Cc1ccc(Oc2cnc3cc(Cl)ccc3n2)cc1-c1c(OS(=O)(=O)C(F)(F)F)c(C)nn(C)c1=O` [Compound 3-69], the “Growth inhibition rate (%) Barnyardgrass” value in [1] came to 100%; in assay [11], 93%. The results for the “Growth inhibition rate (%) Corn” value in assay [2] and in assay [12] were 20% and 0%, respectively. Besides, the “Growth inhibition rate (%) Crabgrass” value turned out to be 95% in assay [3] and 30% in [13]. Also, the “Growth inhibition rate (%) Green foxtail” value in [4] is reported as 100%; in assay [14], 95%. Besides, in [5], the “Growth inhibition rate (%) Italian ryegrass” value came to 99%. Moreover, the “Growth inhibition rate (%) Redroot pigweed” value in assay [6] and in assay [16] was 0% throughout. Further, the “Growth inhibition rate (%) Rice” value in assay [7] is recorded as 30%; in assay [17], 0%. The “Growth inhibition rate (%) Soybean” value in assay [8] and in assay [18] was 0% each time. Besides, the “Growth inhibition rate (%) Wheat” value in assay [9] amounted to 98%; in assay [20], 0%. The “Growth inhibition rate (%) Wild oat” value in assay [10] was found to be 99%. For the same molecule, the “Growth inhibition rate (%) Prickly sida” value in [15] is given as 0%. Further, the “Growth inhibition rate (%) Velvetleaf” value in [19] is reported as 0%.
As for `CCOC(=O)C(=O)Oc1c(C)nn(C)c(=O)c1-c1cc(Oc2cnc3cc(Cl)ccc3n2)ccc1C` [Compound 3-79], the “Growth inhibition rate (%) Barnyardgrass” value in assay [1] and in assay [11] was 100% each time. In addition, the “Growth inhibition rate (%) Corn” value is 50% in assay [2] and 0% in assay [12]. The “Growth inhibition rate (%) Crabgrass” value was found to be 98% in [3] and 95% in assay [13]. Moreover, the “Growth inhibition rate (%) Green foxtail” value in [4] and in assay [14] was 100% each time. Further, in assay [5], the “Growth inhibition rate (%) Italian ryegrass” value was determined as 99%. Moreover, the “Growth inhibition rate (%) Redroot pigweed” value in assay [6] and in assay [16] was 0% throughout. Moreover, the “Growth inhibition rate (%) Rice” value is on record as 99% in assay [7] and 0% in [17]. Besides, the “Growth inhibition rate (%) Soybean” value came to 30% in assay [8] and 0% in [18]. For the same molecule, the “Growth inhibition rate (%) Wheat” value stood at 93% in assay [9] and 0% in [20]. Besides, the “Growth inhibition rate (%) Wild oat” value in [10] is reported as 98%. Moreover, the “Growth inhibition rate (%) Prickly sida” value in assay [15] is on record as 0%. Also, in assay [19], the “Growth inhibition rate (%) Velvetleaf” value is 0%.
`C#CC(=O)Oc1c(C)nn(C)c(=O)c1-c1cc(Oc2cnc3cc(Cl)ccc3n2)ccc1C` [Compound 3-82]: the “Growth inhibition rate (%) Barnyardgrass” value in assay [1] amounted to 100%; in [11] it was 99%. Besides, the results for the “Growth inhibition rate (%) Corn” value in assay [2] and in assay [12] were 35% and 0%, respectively. Further, the “Growth inhibition rate (%) Crabgrass” value is 98% in assay [3] and 85% in assay [13]. In addition, the “Growth inhibition rate (%) Green foxtail” value was found to be 100% in assay [4] and 99% in assay [14]. For the same molecule, the “Growth inhibition rate (%) Italian ryegrass” value in assay [5] worked out at 98%. In addition, the “Growth inhibition rate (%) Redroot pigweed” value in [6] is 10%; in [16], 0%. The entries for the “Growth inhibition rate (%) Rice” value in assay [7] and in assay [17] were 93% and 0%, respectively. The “Growth inhibition rate (%) Soybean” value in assay [8] and in [18] was 0% each time. For the same molecule, the figures for the “Growth inhibition rate (%) Wheat” value in assay [9] and in assay [20] were 98% and 0%, respectively. Also, in assay [10], the “Growth inhibition rate (%) Wild oat” value was found to be 98%. For the same molecule, in assay [15], the “Growth inhibition rate (%) Prickly sida” value is recorded as 0%. Moreover, in assay [19], the “Growth inhibition rate (%) Velvetleaf” value was determined as 0%.
Turning to `CCn1nc(C)c(O)c(-c2cc(Oc3cnc4cc(Cl)ccc4n3)ccc2C)c1=O` [Compound 3-96], the “Growth inhibition rate (%) Barnyardgrass” value in assay [1] was 100%; in assay [11], 99%. The “Growth inhibition rate (%) Corn” value was found to be 20% in assay [2] and 0% in [12]. The entries for the “Growth inhibition rate (%) Crabgrass” value in assay [3] and in assay [13] were 100% and 98%, respectively. Moreover, the figures for the “Growth inhibition rate (%) Green foxtail” value in assay [4] and in assay [14] were 100% and 85%, respectively. The “Growth inhibition rate (%) Italian ryegrass” value in assay [5] was found to be 99%. Moreover, the “Growth inhibition rate (%) Redroot pigweed” value in assay [6] and in [16] was 0% in each case. Besides, the “Growth inhibition rate (%) Rice” value stood at 95% in assay [7] and 75% in assay [17]. The “Growth inhibition rate (%) Soybean” value in [8] and in assay [18] was 0% in each case. The “Growth inhibition rate (%) Wheat” value came to 95% in assay [9] and 0% in assay [20]. The “Growth inhibition rate (%) Wild oat” value in [10] turned out to be 98%. Also, in assay [15], the “Growth inhibition rate (%) Prickly sida” value is recorded as 0%. In addition, the “Growth inhibition rate (%) Velvetleaf” value in assay [19] is 0%.
